Test results from US11242351B2, “Tricyclic inhibitors of the BCL6 BTB domain protein-protein interaction and uses thereof” (priority 2017, dated 2022).
Where two headings read alike, the source gives them in different places.

Legend:
[1] = molecular target: BCL6 BTB domain (biotin-thrombin-BCL6 amino acids 1-129) (Homo sapiens (Human), UniProt P41182); assay: Surface Plasmon Resonance (SPR) assay; assay type: binding; conditions: Biacore T200, single cycle kinetic analysis
Method: Surface Plasmon Resonance (SPR) Assay
SPR studies were performed using a Biacore™ T200 instrument (GE Health Sciences Inc.). […] The Biacore flow rate was set at 100 μl/min. […] Curve fitting and KD calculations were performed with the Biacore T200 Evaluation software (GE Health Sciences Inc).

[2] = test system: BCL6 reporter construct in SuDHL4-3×BCL6-TK-Luc cells; assay: Cell-based luciferase assay (BCL6 reporter); conditions: 48 h, read-out: Luc IC50
How it was run: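 SuDHL4 cells stably carrying a 3×BCL6-site TK-promoter firefly luciferase reporter, 15,000 cells/well, dosed over 10 concentrations (top 10 μM) and cultured two days at 37° C, 5% CO2. Luciferase luminescence read after room-temperature equilibration with neolite reagent.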

Karpas422 cells = assay: Tumor cell growth inhibition assay; assay type: cell-based; conditions: Homo sapiens, KARPAS-422, 144 h, read-out: GI Karpas EC50
How it was run: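 Karpas422 cells were dosed over a 10-point concentration range (top 5 μM) and grown 6 days at 37 °C, 5% CO2, in Alpha-MEM with 10% FBS. Viability was read as ATPlite luminescence.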

[3] = SuDHL4-3×BCL6-TK-Luc cells, two days
[4] = Karpas422 cells, six days, ATPlite

SMILES	Kd [1] [nM]	IC50 [2, 3] [nM]	EC50 (Karpas422 cells; [4]) [nM]	IC50 [2] [nM]	EC50 (Karpas422 cells) [nM]
C[C@H]1CN(CC2CC2)CCN1c1cc(NC(=O)Cn2cc(-c3cc(C(N)=O)c(O)c(F)c3F)c3c(=O)n4c(nc32)CCC4)c(Cl)cn1 [I-6, (S)-5-(1-(2-((5-chloro-2-(4-(cyclopropylmethyl)-2-methylpiperazin-1-yl)pyridin-4-yl)amino)-2-oxoethyl)-4-oxo-4,6,7,8-tetrahydro-1H-dipyrrolo[1,2-a:2′,3′-d]pyrimidin-3-yl)-3,4-difluoro-2-hydroxy-benzamide]	25.9	306	997	–	–
CN(C)c1cc(NC(=O)Cn2cc(-c3cc(F)c(O)c(C(N)=O)c3)c3c(=O)n4c(nc32)CCC4)c(Cl)c(F)n1 [I-80, 5-(1-(2-((3-chloro-6-(dimethylamino)-2-fluoropyridin-4-yl)amino)-2-oxoethyl)-4-oxo-4,6,7,8-tetrahydro-1H-dipyrrolo[1,2-a:2′,3′-d]pyrimidin-3-yl)-3-fluoro-2-hydroxy-benzamide]	3.83	87.2	70.1	–	–
C[C@H]1COCCN1c1cc(NC(=O)Cn2cc(-c3cc(Cl)c(O)c(C(N)=O)c3)c3c(=O)n4c(nc32)CC(C)(C)C4)c(Cl)c(F)n1 [I-59, (S)-3-chloro-5-(1-(2-((3-chloro-2-fluoro-6-(3-methylmorpho-lino)pyridin-4-yl)amino)-2-oxoethyl)-7,7-dimethyl-4-oxo-4,6,7,8-tetrahydro-1H-dipyrrolo[1,2-a:2′,3′-d]pyrimidin-3-yl)-2-hydroxybenzamide]	23.4	190	48.8	–	–
CC1Cc2nc3c(c(-c4cc(F)c(O)c(C(N)=O)c4)cn3CC(=O)Nc3cc(N4CCN(C)C[C@@H]4C)nc(F)c3Cl)c(=O)n2C1 (stereo partly drawn) [I-78, 5-(1-(2-((3-chloro-6-((S)-2,4-dimethyl-piperazin-1-yl)-2-fluoropyridin-4-yl)amino)-2-oxoethyl)-7-methyl-4-oxo-4,6,7,8-tetrahydro-1H-dipyrrolo[1,2-a:2′,3′-d]pyrimidin-3-yl)-3-fluoro-2-hydroxy-benzamide]	2.03	30.7	21	–	–
CN1CCN(c2ccc(Cl)c(NC(=O)Cn3cc(-c4cc(C(N)=O)c(O)c(F)c4F)c4c(=O)n5c(nc43)CCC5)c2)CC1 [I-32, 5-(1-(2-((2-chloro-5-(4-methylpiperazin-1-yl)phenyl)amino)-2-oxo-ethyl)-4-oxo-4,6,7,8-tetrahydro-1H-dipyrrolo [1,2-a:2′,3′-d]pyrimidin-3-yl)-3,4-difluoro-2-hydroxybenzamide]	261	3580	1340	–	–
CCN1CCN(c2cc(NC(=O)Cn3cc(-c4cc(C(N)=O)c(O)c5c4OCO5)c4c(=O)n5c(nc43)CC(C)C5)c(Cl)c(F)n2)[C@@H](C)C1 (stereo partly drawn) [I-89, 7-(1-(2-((3-chloro-6-((S)-4-ethyl-2-methyl-piperazin-1-yl)-2-fluoropyridin-4-yl)amino)-2-oxoethyl)-7-methyl-4-oxo-4,6,7,8-tetrahydro-1H-dipyrrolo[1,2-a:2′,3′-d]pyrimidin-3-yl)-4-hydroxybenzo[d][1,3] dioxole-5-carboxamide]	1.36	12.9	11.1	–	–
C[C@H]1CN(CCC(F)(F)F)CCN1c1cc(NC(=O)Cn2cc(-c3cc(C(N)=O)c(O)c(F)c3F)c3c(=O)n4c(nc32)CCC4)c(Cl)cn1 [I-35, (S)-5-(1-(2-((5-chloro-2-(2-methyl-4-(3,3,3-trifluoropropyl)piperazin-1-yl)pyridin-4-yl)amino)-2-oxoethyl)-4-oxo-4,6,7,8-tetrahydro-1H-dipyrrolo[1,2-a:2′,3′-d]pyrimidin-3-yl)-3,4-difluoro-2-hydroxy-benzamide]	24.3	237	194	–	–
CCN1CCN(c2cc(NC(=O)Cn3cc(-c4cc(C(N)=O)c(O)c(F)c4F)c4c(=O)n5c(nc43)CCCCC5)c(Cl)c(F)n2)[C@@H](C)C1 [I-52, (S)-5-(1-(2-((3-chloro-6-(4-ethyl-2-methyl-piperazin-1-yl)-2-fluoropyridin-4-yl)amino)-2-oxoethyl)-4-oxo-4,6,7,8,9,10-hexahydro-1H-pyrrolo [2′,3′:4,5]pyrimido [1,2-a]azepin-3-yl)-3,4-difluoro-2-hydroxy-benzamide]	76.5	820	1670	–	–
COc1c(O)c(C(N)=O)cc(-c2cn(CC(=O)Nc3cc(N4CCOC[C@@H]4C)ncc3Cl)c3nc4n(c(=O)c23)CCC4)c1F [I-18, (S)-5-(1-(2-((5-chloro-2-(3-methylmorpholino)pyridin-4-yl)amino)-2-oxoethyl)-4-oxo-4,6,7,8-tetrahydro-1H-dipyrrolo[1,2-a:2′,3′-d]pyrimidin-3-yl)-4-fluoro-2-hydroxy-3-methoxybenzamide]	34.3	–	–	818	688
C[C@@H]1CN(C)C[C@H](C)N1c1cc(NC(=O)Cn2cc(-c3cc(C(N)=O)c(O)c4c3OCO4)c3c(=O)n4c(nc32)CCC4)c(Cl)c(F)n1 [I-98, 7-(1-(2-((3-chloro-2-fluoro-6-((2R,6S)-2,4,6-trimethylpiperazin-1-yl)pyridin-4-yl)amino)-2-oxoethyl)-4-oxo-4,6,7,8-tetrahydro-1H-dipyrrolo [1,2-a:2′,3′-d]pyrimidin-3-yl)-4-hydroxybenzo [d][1,3]dioxole-5-carboxamide]	0.96	–	–	8.16	8.42
C[C@H]1CN(CC2CC2)CCN1c1cc(NC(=O)Cn2cc(-c3cc(C(N)=O)c(O)c(F)c3F)c3c(=O)n4c(nc32)CCCC4)c(Cl)c(F)n1 [I-45, (S)-5-(1-(2-((3-chloro-6-(4-(cyclopropyl-methyl)-2-methyl-piperazin-1-yl)-2-fluoropyridin-4-yl)amino)-2-oxoethyl)-4-oxo-1,4,6,7,8,9-hexahydropyrido [1,2-a]pyrrolo[2,3-d]pyrimidin-3-yl)-3,4-difluoro-2-hydroxy-benzamide]	31.8	–	–	469	1330
C[C@H]1COCCN1c1cc(NC(=O)Cn2cc(-c3cc(C(N)=O)c(O)c(F)c3F)c3c(=O)n4c(nc32)CC(C)(C)C4)c(Cl)c(F)n1 [I-58, (S)-5-(1-(2-((3-chloro-2-fluoro-6-(3-methyl-morpholino)pyridin-4-yl)amino)-2-oxoethyl)-7,7-dimethyl-4-oxo-4,6,7,8-tetrahydro-1H-dipyrrolo[1,2-a:2′,3′-d]pyrimidin-3-yl)-3,4-difluoro-2-hydroxy-benzamide]	28.7	190	96.2	–	–
C[C@H]1CN(C)CCN1c1cc(NC(=O)Cn2cc(-c3cc(F)c(O)c(C(N)=O)c3)c3c(=O)n4c(nc32)CCC4)c(Cl)c(F)n1 [I-55, (S)-5-(1-(2-((3-chloro-6-(2,4-dimethyl-piperazin-1-yl)-2-fluoropyridin-4-yl)amino)-2-oxoethyl)-4-oxo-4,6,7,8-tetrahydro-1H-dipyrrolo [1,2-a:2′,3′-d]pyrimidin-3-yl)-3-fluoro-2-hydroxybenzamide]	1.5	–	–	13.5	16.6
C[C@H]1COCCN1c1cc(NC(=O)Cn2cc(-c3cc(Cl)c(O)c(C(N)=O)c3)c3c(=O)n4c(nc32)CCC4)c(Cl)c(F)n1 [I-62, (S)-3-chloro-5-(1-(2-((3-chloro-2-fluoro-6-(3-methylmorpho-lino)pyridin-4-yl)amino)-2-oxoethyl)-4-oxo-4,6,7,8-tetra-hydro-1H-dipyrrolo [1,2-a:2′,3′-d]pyrimi-din-3-yl)-2-hydroxybenzamide]	7.17	78.5	31.2	–	–
COCCN1CCN(c2cc(NC(=O)Cn3cc(-c4cc(Cl)c(O)c(C(N)=O)c4)c4c(=O)n5c(nc43)CCC5)c(Cl)c(F)n2)[C@@H](C)C1 [I-75, (S)-3-chloro-5-(1-(2-((3-chloro-2-fluoro-6-(4-(2-methoxyethyl)-2-methylpiperazin-1-yl)pyridin-4-yl)amino)-2-oxoethyl)-4-oxo-4,6,7,8-tetra-hydro-1H-dipyrrolo [1,2-a:2′,3′-d]pyrimi-din-3-yl)-2-hydroxy-benzamide]	3.7	36.7	48.9	–	–
C[C@H]1CN(CC(CO)CO)CCN1c1cc(NC(=O)Cn2cc(-c3cc(C(N)=O)c(O)c(F)c3F)c3c(=O)n4c(nc32)CCC4)c(Cl)c(F)n1 [I-46, (S)-5-(1-(2-((3-chloro-2-fluoro-6-(4-(3-hydroxy-2-(hydroxymethyl)propyl)-2-methylpiperazin-1-yl)pyridin-4-yl)amino)-2-oxoethyl)-4-oxo-4,6,7,8-tetrahydro-1H-dipyrrolo[1,2-a:2′,3′-d]pyrimidin-3-yl)-3,4-difluoro-2-hydroxybenzamide]	3.13	935	487	–	–
NC(=O)c1cc(-c2cn(CC(=O)Nc3cc(N4CCOCC4)ccc3Cl)c3nc4n(c(=O)c23)CCC4)c(F)c(F)c1O [I-31, 5-(1-(2-((2-chloro-5-morpholinophenyl)amino)-2-oxoethyl)-4-oxo-4,6,7,8-tetrahydro-1H-dipyrrolo[1,2-a:2′,3′-d]pyrimidin-3-yl)-3,4-difluoro-2-hydroxy-benzamide]	141	–	–	6300	2690
